# Measured values taken from US9795688B2, “Cell-specific targeting using nanostructured delivery systems” (SmartDyeLivery GmbH, priority 2013, dated 2017).
# Columns and labels:
# Assay type in all cases: cell-based
# OCT1 [1] = biological target: T1, OCT1 (Homo sapiens, UniProt O15245); assay: Inhibition of radioactively labeled substrate uptake in transfected HEK-293T cells; details: 10 μmol/L, 5 minutes; [3H]1-Methyl-4-phenylpyridinium
# T1 construct: expressed in transfected cells; host or cells: HEK-293T
# T1 sequence (O15245 1-554): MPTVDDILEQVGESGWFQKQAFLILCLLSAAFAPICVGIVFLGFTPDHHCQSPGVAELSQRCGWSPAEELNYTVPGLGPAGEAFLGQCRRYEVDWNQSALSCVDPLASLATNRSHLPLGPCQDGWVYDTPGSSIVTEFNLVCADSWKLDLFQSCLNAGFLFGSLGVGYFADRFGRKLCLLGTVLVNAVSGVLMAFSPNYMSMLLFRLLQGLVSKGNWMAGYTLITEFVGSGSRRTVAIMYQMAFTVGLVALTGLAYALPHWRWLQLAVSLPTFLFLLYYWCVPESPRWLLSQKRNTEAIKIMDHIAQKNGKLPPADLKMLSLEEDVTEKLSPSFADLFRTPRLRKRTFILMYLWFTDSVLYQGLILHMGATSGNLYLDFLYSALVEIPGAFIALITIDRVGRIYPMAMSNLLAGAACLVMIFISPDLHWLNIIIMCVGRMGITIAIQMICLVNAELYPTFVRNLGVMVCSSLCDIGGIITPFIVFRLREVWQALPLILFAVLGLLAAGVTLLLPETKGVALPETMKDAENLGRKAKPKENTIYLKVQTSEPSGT
# Experimental: (§1) HEK-293T cells were transfected with human tissue-specific hepatocytic transporters. Then the uptake of the polymethine dye DY-635 as a targeting unit into these tissue-specific transporters was investigated for FIG. 10 A. To do so, the cells were sown onto 96 well plates, incubated for 24 hours under standard conditions, then incubated 5 minutes with DY-635 (final concentration in the well: 10 μmol/L) after changing the medium. Next the cells were lysed and the lysates were measured by fluorimetry. […] The uptake by OCT1 can be evaluated as negligible. In FIG. 10 B the question of whether DY-635 binds as an inhibitor to the basolateral hepatocytic transporters was investigated. For this purpose, the HEK-293T cells transfected with the tissue-specific transporters were sown and incubated as described above. After 24 hours the cells were incubated for 5 minutes with either a radioactively labeled transporter-specific substrate or with the radioactive-specific substrate with a specific inhibitor or with DY-635 (10 μmol/L final concentration) (the substrates and their concentrations are shown in Table 3 below). The cells were then washed and lysed in the well. To quantify the uptake, the radioactive radiation of the substrates was used. […] This illustrates the strong interaction of DY-635 with the tissue-specific hepatocytic transporters. It can be concluded that by exposure of DY-635 to the surface of a nanostructured transporter system, immobilization on the cell surface of the hepatocyte occurs, resulting in subsequent endocytosis of the nanoparticle.
# OAT2 = biological target: T2, OAT2 (Homo sapiens, UniProt Q9Y694); assay: as above; details: 10 μmol/L, 5 minutes; [3H]cGMP 10 nM
# T2 construct: expressed in transfected cells; host or cells: HEK-293T
# T2 sequence (Q9Y694 1-548): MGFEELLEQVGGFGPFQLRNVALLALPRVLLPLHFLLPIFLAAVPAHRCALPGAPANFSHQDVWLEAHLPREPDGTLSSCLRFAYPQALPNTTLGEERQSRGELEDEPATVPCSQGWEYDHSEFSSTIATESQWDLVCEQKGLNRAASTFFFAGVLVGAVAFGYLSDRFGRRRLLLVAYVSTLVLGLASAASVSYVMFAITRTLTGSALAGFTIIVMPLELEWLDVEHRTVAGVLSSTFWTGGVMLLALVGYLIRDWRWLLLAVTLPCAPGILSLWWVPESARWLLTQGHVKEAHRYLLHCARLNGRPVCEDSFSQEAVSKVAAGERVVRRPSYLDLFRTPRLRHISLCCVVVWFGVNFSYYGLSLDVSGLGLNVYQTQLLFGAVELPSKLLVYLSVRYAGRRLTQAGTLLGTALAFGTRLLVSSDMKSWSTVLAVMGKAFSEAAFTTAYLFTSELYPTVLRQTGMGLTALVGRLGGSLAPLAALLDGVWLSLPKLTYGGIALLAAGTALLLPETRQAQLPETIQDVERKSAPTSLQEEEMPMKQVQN
# Experimental: as §1
# OATP1B3 = biological target: T3, OATP1B3 (Homo sapiens, UniProt Q9NPD5); assay: as above; details: 10 μmol/L, 5 minutes; [3H]Sulfobromophthalein
# T3 construct: expressed in transfected cells; host or cells: HEK-293T
# T3 sequence (Q9NPD5 1-702): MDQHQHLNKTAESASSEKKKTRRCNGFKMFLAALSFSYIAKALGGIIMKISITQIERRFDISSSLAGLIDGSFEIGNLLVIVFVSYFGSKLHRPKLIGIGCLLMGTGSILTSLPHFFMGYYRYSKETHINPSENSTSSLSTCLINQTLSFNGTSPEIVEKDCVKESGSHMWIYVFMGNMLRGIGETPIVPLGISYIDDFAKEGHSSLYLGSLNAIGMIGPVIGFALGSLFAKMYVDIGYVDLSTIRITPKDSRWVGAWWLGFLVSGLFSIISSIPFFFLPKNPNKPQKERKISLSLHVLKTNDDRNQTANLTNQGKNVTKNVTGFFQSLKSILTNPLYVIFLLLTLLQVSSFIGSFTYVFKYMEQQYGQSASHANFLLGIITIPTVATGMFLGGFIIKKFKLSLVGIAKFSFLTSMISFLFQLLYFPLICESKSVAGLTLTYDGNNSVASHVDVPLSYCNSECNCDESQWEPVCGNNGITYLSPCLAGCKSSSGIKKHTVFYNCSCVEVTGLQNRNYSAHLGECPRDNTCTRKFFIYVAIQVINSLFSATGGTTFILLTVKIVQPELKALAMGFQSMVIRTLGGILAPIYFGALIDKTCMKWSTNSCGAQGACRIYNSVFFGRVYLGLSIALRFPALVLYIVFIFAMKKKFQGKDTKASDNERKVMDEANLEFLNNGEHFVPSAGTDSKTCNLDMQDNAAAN
# Experimental: as §1
# OATP1B1 = biological target: T4, OATP1B1 (Homo sapiens, UniProt Q9Y6L6); assay: as above; details: 10 μmol/L, 5 minutes; [3H]Estradiol 30 nM
# T4 construct: expressed in transfected cells; host or cells: HEK-293T
# T4 sequence (Q9Y6L6 1-691): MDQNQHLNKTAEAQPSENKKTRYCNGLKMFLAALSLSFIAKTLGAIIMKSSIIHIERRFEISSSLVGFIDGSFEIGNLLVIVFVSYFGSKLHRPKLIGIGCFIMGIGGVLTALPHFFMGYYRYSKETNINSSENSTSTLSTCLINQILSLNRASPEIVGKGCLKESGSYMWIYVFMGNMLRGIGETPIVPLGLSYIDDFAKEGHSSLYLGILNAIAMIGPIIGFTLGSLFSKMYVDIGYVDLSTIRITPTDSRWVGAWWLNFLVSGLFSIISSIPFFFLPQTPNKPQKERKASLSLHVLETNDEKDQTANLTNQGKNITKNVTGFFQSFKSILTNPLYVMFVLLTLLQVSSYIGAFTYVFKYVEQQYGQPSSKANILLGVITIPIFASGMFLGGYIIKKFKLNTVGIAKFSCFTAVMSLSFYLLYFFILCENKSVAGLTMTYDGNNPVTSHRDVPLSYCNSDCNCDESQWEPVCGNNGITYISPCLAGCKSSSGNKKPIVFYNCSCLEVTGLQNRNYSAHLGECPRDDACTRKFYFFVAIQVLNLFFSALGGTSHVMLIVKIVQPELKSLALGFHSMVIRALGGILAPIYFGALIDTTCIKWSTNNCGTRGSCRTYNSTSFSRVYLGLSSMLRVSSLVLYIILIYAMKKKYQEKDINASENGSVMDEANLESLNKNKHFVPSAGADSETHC
# Experimental: as §1
# OCT1 [2] = biological target: T1, OCT1; assay: Uptake of DY-635 into transporter-transfected HEK-293T cells; details: 10 μmol/L, 5 minutes
# Experimental: as §1, with “It can be concluded that by exposure of DY-635 to the surface of a nanostructured transporter system, immobilization on the cell surface of the hepatocyte occurs, resulting in subsequent endocytosis of the nanoparticle.” left out
# NTCP = biological target: T5, NTCP (Homo sapiens, UniProt Q14973); assay: as above; details: 10 μmol/L, 5 minutes
# T5 construct: expressed in transfected cells; host or cells: HEK-293T
# T5 sequence (Q14973 1-349): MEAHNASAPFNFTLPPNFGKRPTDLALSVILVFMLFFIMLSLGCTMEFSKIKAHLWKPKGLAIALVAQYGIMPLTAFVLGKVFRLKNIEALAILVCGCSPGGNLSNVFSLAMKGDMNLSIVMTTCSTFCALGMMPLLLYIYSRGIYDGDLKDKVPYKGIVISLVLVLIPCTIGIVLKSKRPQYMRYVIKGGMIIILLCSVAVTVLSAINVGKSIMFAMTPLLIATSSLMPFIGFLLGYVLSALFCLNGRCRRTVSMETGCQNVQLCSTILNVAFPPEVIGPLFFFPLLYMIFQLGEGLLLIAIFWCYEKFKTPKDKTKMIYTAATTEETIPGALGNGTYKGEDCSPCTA
# Experimental: as §1, with “It can be concluded that by exposure of DY-635 to the surface of a nanostructured transporter system, immobilization on the cell surface of the hepatocyte occurs, resulting in subsequent endocytosis of the nanoparticle.” left out
structure (smiles),measurement,setting,value
CC(C)(C)C1=CC(=CC=CC2=[N+](CCCCCC(=O)O)c3ccc(S(=O)(=O)[O-])cc3C2(C)C)c2cc3c4c(c2O1)CCCN4CCC3 [DY-635],inhibition of OCT1,OCT1 [1],inhibited
same,inhibition of OAT2,OAT2,inhibited
same,inhibition of OATP1B3,OATP1B3,strong indicator
same,inhibition of OATP1B1,OATP1B1,strong indicator
same,uptake of DY-635 by OCT1,OCT1 [2],negligible
same,uptake of DY-635 by NTCP,NTCP,substrate for NTCP
